According to US8030336B2, “Nicotinamide-based kinase inhibitors” (YM Biosciences Australia Pty Ltd, priority 2002, dated 2011):

Key:
Assay type in all cases: biochemical
[1] = biological target: T1, human JAK2 (Homo sapiens, UniProt O60674); assay: JAK2 kinase assay (ELISA or Alphascreen); conditions: read-out: Jak2 inhibition of enzyme activity
T1 construct: The kinase domain of human JAK2 was amplified from U937mRNA; His tag (from the pFastBac HTc vector) (N); made in house; host or cells: baculovirus; Sf9 for virus, High Five insect cells for production
T1 sequence (O60674 849-1124 limits assumed): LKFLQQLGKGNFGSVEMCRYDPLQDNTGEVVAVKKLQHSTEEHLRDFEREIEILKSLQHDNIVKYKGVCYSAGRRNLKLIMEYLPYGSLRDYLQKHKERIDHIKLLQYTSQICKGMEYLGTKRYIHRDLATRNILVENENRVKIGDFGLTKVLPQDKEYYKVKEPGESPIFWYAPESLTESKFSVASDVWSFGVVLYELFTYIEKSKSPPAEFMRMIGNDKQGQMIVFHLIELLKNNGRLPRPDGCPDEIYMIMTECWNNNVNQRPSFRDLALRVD
Description: The kinase domain of human JAK2 was amplified from U937mRNA using the polymerase chain reaction with the following primers: […]
JAK2 PCR products were doped into the pFastBac HTc expression vector (Gibco) via the Sal I and Not I sites. The JAK2 plasmid was than transformed into competent DH10Bac cells (Gibco), and the recombinant baculovirus produced prepared for transfection into Sf9 insect cells.
(§1) Baculovirus preparations from each of the JAK family members were infected into five liters of High Five cells (Invitrogen) grown in High Five serum free medium (Invitrogen) to a cell density of approximately 1-2×10^6 cells/ml. Cells are infected with virus at a MOI of 0.8-3.0. Cells were harvested and lysed. JAK kinase domains were purified by affinity chromatography on a Probond (Invitrogen) nickel chelate affinity column.
(§2) Kinase assays were performed in a 96 well capture-based ELISA assay or in 384 well Optiplates (Packard) using an Alphascreen Protein Tyrosine Kinase kit. In either case using approximately 1.5 μg of affinity purified PTK domain in the presence of 50 mM HEPES, pH 7.5, 10 mM MgCl2, 150 mM NaCl and 10 μM-1 mM ATP. The biotinylated substrate biotin-EGPWLEEEEEAYGWMDF-NH2 (SEQ ID NO:9) (final concentration 5 μM) was used as substrate. In the ELISA assay tyrosine phosphorylation was quantitated following transfer to an avidin coated ELISA plate using peroxidase-linked anti-phosphotyrosine antibody PY20. In the Alphascreen assay, Alphascreen phosphotyrosine acceptor beads followed by streptavidin donor beads were added under subdued light. The ELISA plates were read on a BMG Fluorostar, the Alphascreen plates were read on a Packard Fusion Alpha. Inhibitors were added to the assays fifteen minutes prior to the addition of ATP. Inhibitors were added in aqueous […] concentrations never exceeding 1%.

[2] = biological target: T2, human JAK3 (Homo sapiens, UniProt P52333); assay: JAK3 kinase assay (ELISA or Alphascreen); conditions: read-out: Jak3 inhibition of enzyme activity
T2 construct: The kinase domain of human JAK3 was amplified from U937mRNA; His tag (from the pFastBac HTb vector) (N); made in house; host or cells: baculovirus; Sf9 for virus, High Five insect cells for production
T2 sequence (P52333 822-1111 limits assumed): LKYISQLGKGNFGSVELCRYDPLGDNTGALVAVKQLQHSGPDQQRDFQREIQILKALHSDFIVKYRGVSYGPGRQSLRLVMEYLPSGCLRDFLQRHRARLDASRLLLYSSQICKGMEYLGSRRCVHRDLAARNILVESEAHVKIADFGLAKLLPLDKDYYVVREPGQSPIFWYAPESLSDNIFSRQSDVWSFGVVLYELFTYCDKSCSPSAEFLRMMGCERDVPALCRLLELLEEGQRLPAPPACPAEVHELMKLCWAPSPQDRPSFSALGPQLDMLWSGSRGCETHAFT
Description: The kinase domain of human JAK3 was amplified from U937mRNA using the polymerase chain reaction with the following primers: […]
JAK3 PCR products were cloned into the pFastBac HTb expression vector (Gibco) via the Xho I and Kpn I sites. The JAK3 plasmid was then transformed into competent DH10Bac cells (Gibco), and the recombinant baculovirus produced prepared for transfection into Sf9 insect cells.
as §1, §2

[3] = biological target: T3, abl (Homo sapiens, UniProt P00519); assay: abl kinase assay (ELISA or Alphascreen); conditions: read-out: abl inhibition of enzyme activity
T3 sequence (P00519 242-493 limits assumed): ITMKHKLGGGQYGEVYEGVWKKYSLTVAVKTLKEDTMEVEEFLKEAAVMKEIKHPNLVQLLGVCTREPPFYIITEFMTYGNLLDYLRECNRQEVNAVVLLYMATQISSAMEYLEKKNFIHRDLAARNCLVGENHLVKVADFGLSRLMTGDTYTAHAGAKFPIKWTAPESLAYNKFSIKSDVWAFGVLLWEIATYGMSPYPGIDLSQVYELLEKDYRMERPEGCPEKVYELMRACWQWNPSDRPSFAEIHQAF
Description: as §2

[4] = biological target: fes (Homo sapiens, UniProt P07332); assay: fes kinase assay (ELISA or Alphascreen); conditions: read-out: fes inhibition of enzyme activity
Sequence of fes (P07332 561-822 limits assumed, species assumed): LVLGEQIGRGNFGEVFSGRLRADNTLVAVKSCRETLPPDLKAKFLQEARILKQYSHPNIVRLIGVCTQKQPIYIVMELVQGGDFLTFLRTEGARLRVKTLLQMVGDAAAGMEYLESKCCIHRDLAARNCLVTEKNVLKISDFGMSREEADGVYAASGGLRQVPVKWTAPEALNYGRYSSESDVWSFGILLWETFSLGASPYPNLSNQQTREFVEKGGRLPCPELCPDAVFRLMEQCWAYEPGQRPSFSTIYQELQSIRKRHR
Description: as §2

[5] = biological target: T4, fms (Homo sapiens, UniProt P07333); assay: fms kinase assay (ELISA or Alphascreen); conditions: read-out: fms inhibition of enzyme activity
T4 sequence (P07333 582-910 limits assumed): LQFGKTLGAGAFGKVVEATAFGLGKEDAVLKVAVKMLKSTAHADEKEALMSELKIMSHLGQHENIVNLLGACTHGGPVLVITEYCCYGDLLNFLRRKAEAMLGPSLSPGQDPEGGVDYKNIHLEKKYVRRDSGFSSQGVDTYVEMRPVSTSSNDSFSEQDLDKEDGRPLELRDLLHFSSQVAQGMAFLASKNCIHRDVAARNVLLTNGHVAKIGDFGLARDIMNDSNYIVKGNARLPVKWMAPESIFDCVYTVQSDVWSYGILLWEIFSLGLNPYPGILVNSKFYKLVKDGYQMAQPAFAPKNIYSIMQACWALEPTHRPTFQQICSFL
Description: as §2

[6] = biological target: T5, Zap70 (Homo sapiens, UniProt P43403); assay: Zap70 kinase assay (ELISA or Alphascreen); conditions: read-out: Zap70 inhibition of enzyme activity
T5 sequence (P43403 338-600 limits assumed): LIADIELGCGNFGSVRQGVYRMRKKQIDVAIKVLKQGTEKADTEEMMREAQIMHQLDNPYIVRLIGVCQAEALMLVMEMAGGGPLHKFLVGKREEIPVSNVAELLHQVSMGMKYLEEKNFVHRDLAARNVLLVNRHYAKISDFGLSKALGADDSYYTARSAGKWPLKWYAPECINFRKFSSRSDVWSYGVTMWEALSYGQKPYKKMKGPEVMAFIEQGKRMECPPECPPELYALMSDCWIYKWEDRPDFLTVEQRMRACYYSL
Description: as §2

[7] = biological target: hck (Homo sapiens, UniProt P08631); assay: hck kinase assay (ELISA or Alphascreen); conditions: read-out: hck inhibition of enzyme activity
Sequence of hck (P08631 262-515 limits assumed, species assumed): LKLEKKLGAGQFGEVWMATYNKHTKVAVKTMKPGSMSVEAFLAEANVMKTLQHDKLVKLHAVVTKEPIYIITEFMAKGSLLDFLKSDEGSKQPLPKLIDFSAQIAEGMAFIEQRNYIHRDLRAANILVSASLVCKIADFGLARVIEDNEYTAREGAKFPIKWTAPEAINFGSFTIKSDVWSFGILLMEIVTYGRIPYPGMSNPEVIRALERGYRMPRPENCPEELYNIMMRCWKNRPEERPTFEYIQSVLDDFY
Description: as §2

Row | SMILES | inhibition at 10 µM [1] [%] | inhibition at 10 µM [2] [%] | inhibition at 10 µM [3] [%] | inhibition at 10 µM [4] [%] | inhibition at 10 µM [5] [%] | inhibition at 10 µM [6] [%] | inhibition at 10 µM [7] [%]
1 | COc1cc(CNC(=O)c2cncc(-c3ccc(O)cc3)c2)cc(OC)c1 | < 50 | < 50 | < 50 | < 50 | < 50 | < 50 | 
2 | O=C(NCCc1ccccc1)c1cncc(-c2ccc(O)cc2)c1 | < 50 | < 50 |  | < 50 | < 50 | < 50 | < 50
3 | Cc1ccc(F)cc1NC(=O)c1cncc(-c2ccc(O)cc2)c1 | < 50 | < 50 | ≥ 50 | < 50 | < 50 | < 50 | 
4 | Cc1ccc(CNC(=O)c2cncc(-c3cc(C)c(O)c(C)c3)c2)cc1 | < 50 | < 50 | < 50 | < 50 | < 50 | < 50 | 
5 | Cc1ccc(C)c(CNC(=O)c2cncc(-c3cc(C)c(O)c(C)c3)c2)c1 | < 50 | < 50 | ≥ 50 | ≥ 50 | ≥ 50 | < 50 | 
6 | Cc1ccc(F)cc1NC(=O)c1cncc(-c2cc(C)c(O)c(C)c2)c1 | < 50 | < 50 |  |  | ≥ 50 | < 50 | ≥ 50
7 | COc1cc(-c2cncc(C(=O)NCc3cccc(F)c3)c2)c(Cl)c(OC)c1OC | < 50 | < 50 | < 50 | < 50 | < 50 | < 50 | 
8 | COc1cc(-c2cncc(C(=O)Nc3ccc(N4CCOCC4)cc3)c2)c(Cl)c(OC)c1OC | < 50 | < 50 | < 50 | < 50 | < 50 | < 50 | 
9 | COc1cc(NC(=O)c2cncc(-c3cc(OC)c(OC)c(OC)c3Cl)c2)cc(OC)c1OC | < 50 | < 50 |  | < 50 | < 50 | < 50 | < 50
10 | C[C@@H](NC(=O)c1cncc(-c2ccc3c(c2)OCO3)c1)c1ccccc1 | < 50 | < 50 |  | < 50 | < 50 | < 50 | < 50
11 | C[C@H](NC(=O)c1cncc(-c2ccc3c(c2)OCO3)c1)c1ccccc1 | < 50 | < 50 |  | < 50 | < 50 | < 50 | < 50
12 | COc1ccc(CNC(=O)c2cncc(-c3ccc4c(c3)OCO4)c2)cc1 | < 50 | < 50 |  | < 50 | < 50 | < 50 | < 50
13 | COc1ccc(NC(=O)c2cncc(-c3ccc4c(c3)OCO4)c2)c(OC)c1 | < 50 | < 50 |  | < 50 | < 50 |  | < 50
14 | O=C(NCc1ccc(Cl)c(Cl)c1)c1cncc(-c2cccs2)c1 | < 50 | < 50 |  | < 50 | < 50 | < 50 | < 50
15 | CC(C)C(CO)NC(=O)c1cncc(-c2cccs2)c1 (stereo not shown) | < 50 | < 50 |  | < 50 | < 50 | < 50 | < 50
16 | O=C(NCc1ccncc1)c1cncc(-c2cccs2)c1 | < 50 | < 50 |  | < 50 | < 50 | < 50 | < 50
17 | Cc1ccc(C)c(NC(=O)c2cncc(-c3cccs3)c2)c1 | < 50 | < 50 | < 50 | ≥ 50 | < 50 | < 50 | 
18 | Cc1ccccc1NC(=O)c1cncc(-c2cccnc2)c1 | < 50 | < 50 | < 50 | < 50 | < 50 | < 50 | 
19 | O=C(NCc1ccc(F)cc1)c1cncc(-c2ccc(F)cc2)c1 | ≥ 50 | < 50 | < 50 | < 50 | < 50 | < 50 | 
20 | O=C(NCc1ccncc1)c1cncc(-c2ccc(F)cc2)c1 | < 50 | < 50 | < 50 | < 50 | < 50 | < 50 | 
21 | Cc1ccc(C)c(NC(=O)c2cncc(-c3ccc(F)cc3)c2)c1 | < 50 | < 50 |  | < 50 | < 50 | < 50 | < 50
22 | COc1ccc(NC(=O)c2cncc(-c3ccc(F)cc3)c2)c(OC)c1 | < 50 | < 50 | < 50 | < 50 | < 50 | < 50 | 
23 | COc1cccc(-c2cncc(C(=O)NCc3cccnc3)c2)c1 | < 50 | < 50 |  | < 50 | < 50 | ≥ 50 | < 50
24 | COc1cccc(-c2cncc(C(=O)Nc3ccccc3C)c2)c1 | < 50 | < 50 | < 50 | < 50 | < 50 | < 50 | 
25 | COc1cccc([C@H](C)NC(=O)c2cncc(-c3ccc(O)c(OC)c3)c2)c1 | < 50 | < 50 |  | < 50 | < 50 | < 50 | < 50
26 | COc1cc(-c2cncc(C(=O)Nc3ccccc3C)c2)ccc1O | < 50 | < 50 |  | < 50 | < 50 | < 50 | ≥ 50
